From ChEMBL document CHEMBL1144802, “Cytotoxic xanthones from Psorospermum molluscum from the Madagascar rain forest” (J Nat Prod, 2008)

Experiments:
ABAE = assay: Cytotoxicity against bovine ABAE cells; format: functional, cell-based, Bos taurus
HCT-116 = assay: Cytotoxicity against human HCT116 cells; format: functional, cell-based
A2780 = assay: Cytotoxicity against human A2780 cells; format: functional, cell-based
SK-BR-3 = assay: Cytotoxicity against human SKBR3 cells; format: functional, cell-based

SMILES	IC50 (ABAE) [nM]	IC50 (HCT-116) [nM]	IC50 (A2780) [nM]	IC50 (SK-BR-3) [nM]
O=c1c2c(O)cccc2oc2ccc3c(c12)CC(C(O)(CO)CCl)O3 (configuration not stated) [PSOROXANTHIN CHLOROHYDRIN]	4	68	42	2000
O=c1c2c(O)cccc2oc2ccc3c(c12)CC(C1(CO)CO1)O3 (configuration not stated) [PSOROXANTHIN]	102	1000	330	–
